According to PubChem BioAssay (NCI):
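All cell lines were grown in 96-well plates and treated with compound for 48 hours. Abbreviation: GI50, concentration required for 50% inhibition of growth. At the TGI there is no net growth.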

What was measured:
Assay in all cases: NCI tumour cell line growth inhibition, 48 h
A549 NSCLC = system: A549 NSCLC
ACHN renal = system: ACHN renal
MCF7 breast = system: MCF7 breast
NCI-H522 lung = system: NCI-H522 lung
OVCAR-5 ovarian = system: OVCAR-5 ovarian
RXF 393 renal = system: RXF 393 renal
SW-620 colon = system: SW-620 colon
UACC-257 melanoma = system: UACC-257 melanoma
UACC-62 melanoma = system: UACC-62 melanoma
OVCAR-4 ovarian = system: OVCAR-4 ovarian

SMILES	GI50 (A549 NSCLC) [µM]	TGI (A549 NSCLC) [µM]	GI50 (ACHN renal) [µM]	TGI (ACHN renal) [µM]	GI50 (MCF7 breast) [µM]	TGI (MCF7 breast) [µM]	GI50 (NCI-H522 lung) [µM]	TGI (NCI-H522 lung) [µM]	GI50 (OVCAR-5 ovarian) [µM]	TGI (OVCAR-5 ovarian) [µM]	GI50 (RXF 393 renal) [µM]	TGI (RXF 393 renal) [µM]	GI50 (SW-620 colon) [µM]	TGI (SW-620 colon) [µM]	GI50 (UACC-257 melanoma) [µM]	TGI (UACC-257 melanoma) [µM]	GI50 (UACC-62 melanoma) [µM]	TGI (UACC-62 melanoma) [µM]	TGI (OVCAR-4 ovarian) [µM]	GI50 (OVCAR-4 ovarian) [µM]
CC/C(=C(/c1ccc(OCCN(C)C)cc1)c1ccc(OC(=O)CCCCCCCCC(=O)c2c(C)[nH]c(/C=C3\N=C(c4ccc[nH]4)C=C3OC)c2C)cc1)c1ccccc1	4.13	> 100	7.82	> 100	0.161	10.9	21.2	> 100	> 100	> 100	13.9	> 100	3.72	14	62.5	> 100	3.37	18.1	–	–
COC(=O)C1=CC(=O)[C@@H]2CCCC[C@H]12	–	> 100	–	> 100	–	–	–	> 100	–	–	–	> 100	–	> 100	–	> 100	–	> 100	> 100	–
CSC1=Nc2ccccc2N=C(c2ccccc2)C1	–	> 100	–	> 100	–	–	–	> 100	–	> 100	–	71.6	–	32.6	–	> 100	–	> 100	> 100	–
COc1ccc(-c2cc(=O)c3cc(O)ccc3o2)c(OC)c1OC	–	> 100	–	93.6	–	–	–	64.6	–	81.4	–	89.4	–	> 100	–	> 100	–	> 100	> 100	–
COc1ccc2nc3ccccc3c(NCCN(CCCl)CCCl)c2c1	–	10.7	–	2.53	–	–	–	1.75	–	2.49	–	–	–	2.51	–	3.99	–	2.3	3.14	–
COC(=O)C1=CCC2c3[nH]c4ccccc4c3CCN2C1 (configuration not stated)	–	> 354	–	> 354	–	–	–	> 354	–	–	–	> 354	–	> 354	–	> 354	–	> 354	–	–
COc1cc2c(cc1-c1coc3cc(O)ccc3c1=O)OCO2	–	77.4	–	40.9	–	90.9	–	36.2	–	> 100	–	–	–	> 100	–	85.1	–	63.9	44.3	–
CC1=C(C(=O)Nc2ccc(C)cc2)C(c2cccc([N+](=O)[O-])c2)C(C(=O)Nc2ccc(C)cc2)=C(C)N1	–	> 100	–	80.8	–	–	–	93.8	–	> 100	–	63.2	–	> 100	–	56.7	–	30.4	> 100	–
CCOC(=O)C(=O)C(C#N)c1ccc(Cl)cc1 (configuration not stated)	–	> 100	–	> 100	–	–	–	> 100	–	> 100	–	> 100	–	> 100	–	> 100	–	> 100	> 100	–
CC1=CC[C@@H](C(C)(C)O)C[C@@H]1O	–	> 5000	–	> 5000	–	–	–	> 5000	–	> 5000	–	> 5000	–	> 5000	–	> 5000	–	> 5000	> 5000	–
N#C/C(=C\c1ccc[nH]1)C(=O)c1ccccc1	–	> 100	–	> 100	–	–	–	> 100	–	> 100	–	> 100	–	> 100	–	> 100	–	> 100	> 100	–
N#Cc1cccc(C2C(=O)c3ccc(C(=O)c4ccc5c(c4)C(=O)N(c4ccc(Oc6ccc(N7C(=O)c8ccc(C(=O)c9ccc%10c(c9)C(=O)N(c9cccc(C#N)c9)C%10=O)cc8C7=O)cc6)cc4)C5=O)cc3C2=O)c1 (configuration not stated)	–	> 100	–	> 100	–	–	–	> 100	–	> 100	–	> 100	–	> 100	–	> 100	–	> 100	> 100	–
CC1(C)C(CC(=O)O)CCCC1CC(=O)O (configuration not stated)	–	> 100	–	> 100	–	> 100	–	–	–	> 100	–	> 100	–	> 100	–	> 100	–	> 100	> 100	–
Clc1ccccc1C1SCc2nc3ccccc3n21 (configuration not stated)	–	> 100	–	> 100	–	–	–	49.5	–	79.4	–	60.5	–	> 100	–	–	–	–	> 100	–
O=C1c2ccc3c4c(ccc(c24)C(=O)N1CCNCc1ccccc1)C(=O)N(CCNCc1ccccc1)C3=O	1.87	8.77	3.19	13.5	–	–	–	–	2.02	4.61	1.41	4.21	0.306	1.37	1.69	3.45	1.74	3.35	2.71	1.41
CCCCCCCCCCCCCCCCCC[S+](C)CC (configuration not stated)	–	–	1.33	2.96	1.86	4.99	–	–	1.58	4.25	–	–	1.46	2.89	–	–	–	–	4.35	1.65
O=C(O)CCC1c2[nH]c3ccccc3c2CCN1Cc1ccccc1 (configuration not stated)	–	> 100	–	> 100	–	–	–	> 100	–	> 100	–	–	–	> 100	–	> 100	–	> 100	> 100	–
C[C@]12CC[C@@H]3c4ccc(OC(=O)N(CCCl)CCCl)cc4CC[C@H]3[C@@H]1CC[C@@H]2OP(=O)(O)O	48.8	> 100	62.6	> 100	> 100	> 100	28.8	> 71.5	> 62.7	> 100	–	–	> 80.7	> 100	44.5	> 80.6	22.9	> 72.5	> 100	> 58.1
COC(=O)[C@]12CC[C@@H](C)[C@H](C)[C@@H]1C1=CC[C@@H]3[C@@](C)(CC#N)C4=C(C[C@@]3(C)[C@]1(C)CC2)OC[C@]4(C)C=O	10.2	25	6.42	> 100	3.05	11.4	14.7	46.9	14.1	35.8	12	36.1	4.16	30.6	3.73	18.3	–	–	> 100	4.15
CN1C2(c3ccccc3)C(C(=O)c3ccccc3)=C(C(=O)c3ccccc3)C1(c1ccccc1)c1c(-c3ccccc3)sc(-c3ccccc3)c12	–	> 100	–	> 100	–	–	–	> 100	–	> 100	–	> 100	–	> 100	–	> 100	–	> 100	> 100	–
CC(=O)Nc1ccc(C2=N/C(=C\c3ccc(Cl)cc3)C(=O)O2)cc1	–	> 100	–	94	–	–	–	63.7	–	> 100	–	> 100	–	22.8	–	> 100	–	> 100	> 100	–

SMILES	GI50 (A549 NSCLC) [µM]	TGI (A549 NSCLC) [µM]	GI50 (ACHN renal) [µM]	TGI (ACHN renal) [µM]	GI50 (MCF7 breast) [µM]	TGI (MCF7 breast) [µM]	GI50 (NCI-H522 lung) [µM]	TGI (NCI-H522 lung) [µM]	GI50 (OVCAR-5 ovarian) [µM]	TGI (OVCAR-5 ovarian) [µM]	GI50 (RXF 393 renal) [µM]	TGI (RXF 393 renal) [µM]	GI50 (SW-620 colon) [µM]	TGI (SW-620 colon) [µM]	GI50 (UACC-257 melanoma) [µM]	TGI (UACC-257 melanoma) [µM]	GI50 (UACC-62 melanoma) [µM]	TGI (UACC-62 melanoma) [µM]	TGI (OVCAR-4 ovarian) [µM]	GI50 (OVCAR-4 ovarian) [µM]
COC1C(=O)CCC2(CO2)C1(O)C1(C)OC1CC=C(C)C (configuration not stated)	–	> 100	–	> 100	–	53	–	–	–	> 100	–	> 100	–	> 100	–	> 100	–	80.8	> 100	–
C[C@]12CCc3nn(-c4ccccc4)nc3C1CC[C@@H]1C2CC[C@]2(C)C(=O)CCC12 (some centres not stated)	–	> 100	–	> 100	–	–	–	> 100	–	> 100	–	> 100	–	> 100	–	> 100	–	> 100	> 100	–
O=C(Cc1nc2ccccc2o1)C(=O)Nc1ccc(Cl)cc1Cl	–	> 100	–	> 100	–	–	–	–	–	> 100	–	> 100	–	> 100	–	> 100	–	> 100	> 100	–
CC[As](CC)SCC1OC(OC(C)=O)C(OC(C)=O)C(OC(C)=O)C1OC(C)=O (configuration not stated)	–	39.6	–	31.5	–	–	–	3.2	–	32.4	–	9.69	–	16.3	–	28.6	–	27.2	37	–
Cc1c(C(=O)c2ccccc2)[n+](=O)c2cc(F)c(F)cc2n1[O-]	7.26	30.9	1.66	3.02	4.35	21	1.93	3.88	18.7	33.8	–	–	1.43	3.14	2.49	6.1	1.51	2.83	> 100	3.11
Fc1ccc(N=C2C=CC(=Nc3ccc(F)cc3)c3ccccc32)cc1	–	> 100	–	> 100	–	–	–	> 100	–	> 100	–	> 100	–	> 100	–	> 100	–	> 100	–	–
COc1ccc([C@@H]2OC(=O)C3C2C(=O)O[C@H]3c2ccc(OC)cc2)cc1 (some centres not stated)	–	> 100	–	> 100	–	–	–	–	–	–	–	> 100	–	> 100	–	> 100	–	> 100	> 100	–
N#CCCN(c1ccc(C=O)cc1)S(=O)(=O)c1ccccc1	–	> 100	–	> 100	–	–	–	> 100	–	> 100	–	–	–	> 100	–	> 100	–	> 100	> 100	–
CC#CC#C/C(=C/C=CC(=O)OC)SC	–	> 100	–	–	–	> 100	–	> 100	–	> 100	–	–	–	> 100	–	> 100	–	> 100	> 100	–
CCN(CC)C(=O)CC12CCCCC1=Nc1ccccc12 (configuration not stated)	–	> 100	–	> 100	–	–	–	–	–	> 100	–	–	–	> 100	–	> 100	–	> 100	> 100	–
O=C(CC(=O)c1cccc([N+](=O)[O-])c1)C(=O)Nc1ccccc1	–	> 100	–	> 100	–	–	–	> 100	–	> 100	–	> 100	–	> 100	–	> 100	–	> 100	> 100	–
CN(C)C1CN(C(=O)c2cc(-c3ccc4ncnc(N5CCc6cc(F)c(Cl)cc65)c4c3)cnc2N)C1	0.486	> 100	0.443	> 100	0.303	> 100	1.77	> 100	0.743	> 100	0.369	2.34	1.48	> 100	1.54	> 28.1	0.43	2.16	–	–
Cc1ccccc1-n1c(CCl)nc2ccc(Br)cc2c1=O	–	44.9	–	83.8	–	–	–	5.83	–	56.3	–	26.8	–	8.95	–	32.2	–	17.9	31.8	–
O=C(CC1(O)C(=O)Nc2ccccc21)c1ccccc1O (configuration not stated)	–	> 100	–	> 100	–	–	–	> 100	–	> 100	–	> 100	–	> 100	–	> 100	–	> 100	> 100	–
CCc1ccccc1NC(=O)C(=O)C1C(=O)N(c2ccccc2)N=C1N (configuration not stated)	–	> 100	–	> 100	–	–	–	–	–	> 100	–	> 100	–	> 100	–	> 100	–	> 100	> 100	–
CC(C)C1=CC2=C(C(=O)C1=O)C13CCCC(C)(C)C1CC2OC3=O (configuration not stated)	–	> 100	–	38.6	–	55.5	–	30.6	–	59.7	–	–	–	35.2	–	71	–	27.4	40.6	–
CC1C(O)=C(O)c2ccccc2N1O (configuration not stated)	–	> 100	–	> 100	–	–	–	> 100	–	> 100	–	> 100	–	> 100	–	> 100	–	> 100	> 100	–
CCn1ncc(N=O)c1N	–	> 100	–	> 100	–	> 100	–	> 100	–	> 100	–	–	–	> 100	–	> 100	–	> 100	–	–
CCN(/N=C1\CC2C=CCN(C2)C(=O)Cc2c1[nH]c1ccccc21)S(=O)(=O)c1ccc(C)cc1 (configuration not stated)	–	> 100	–	> 100	–	–	–	> 100	–	–	–	–	–	> 100	–	> 100	–	> 100	> 100	–
COc1cc(C2CC(c3cccc(Nc4ccnc5cc(Cl)ccc45)c3)=NN2c2ccccc2)cc(OC)c1OC (configuration not stated)	8.87	> 100	3.52	> 100	2.74	> 100	3.6	> 100	> 100	> 100	8.37	> 100	2.44	> 100	10.5	> 100	0.869	> 100	–	–
